Legend:
Assay in all cases: KINOMEscan scanMAX
Assay type in all cases: binding
Conditions in all cases: read-out: Percent Control
CDC2L1 = target: T1, CDC2L1 (Homo sapiens, UniProt P21127)
T1 construct: purchased Eurofins Discovery (DiscoverX KINOMEscan scanMAX)
Protocol: (§1) The kinome-wide binding assay was performed by Eurofins Discovery using the scanMAX screening platform. More information can be found on the Eurofins Discovery Web site.

BMX = target: T2, BMX (Homo sapiens, UniProt P51813)
T2 construct: purchased Eurofins Discovery (DiscoverX KINOMEscan scanMAX)
Protocol: as §1

ERK3 = target: T3, ERK3 (Homo sapiens, UniProt Q16659)
T3 construct: purchased Eurofins Discovery (DiscoverX KINOMEscan scanMAX)
Protocol: as §1

DDR1 = target: T4, DDR1 (Homo sapiens, UniProt Q08345)
T4 construct: purchased Eurofins Discovery (DiscoverX KINOMEscan scanMAX)
Protocol: as §1

[1] = target: T5, RSK4(Kin.Dom.1-N-terminal) (Homo sapiens, UniProt Q9UK32)
T5 construct: RSK4(Kin.Dom.1-N-terminal); purchased Eurofins Discovery (DiscoverX KINOMEscan scanMAX)
Protocol: as §1

GRK7 = target: T6, GRK7 (Homo sapiens, UniProt Q8WTQ7)
T6 construct: purchased Eurofins Discovery (DiscoverX KINOMEscan scanMAX)
Protocol: as §1

EPHA1 = target: T7, EPHA1 (Homo sapiens, UniProt P21709)
T7 construct: purchased Eurofins Discovery (DiscoverX KINOMEscan scanMAX)
Protocol: as §1

PRKX = target: T8, PRKX (Homo sapiens, UniProt P51817)
T8 construct: purchased Eurofins Discovery (DiscoverX KINOMEscan scanMAX)
T8 sequence (P51817 whole entry): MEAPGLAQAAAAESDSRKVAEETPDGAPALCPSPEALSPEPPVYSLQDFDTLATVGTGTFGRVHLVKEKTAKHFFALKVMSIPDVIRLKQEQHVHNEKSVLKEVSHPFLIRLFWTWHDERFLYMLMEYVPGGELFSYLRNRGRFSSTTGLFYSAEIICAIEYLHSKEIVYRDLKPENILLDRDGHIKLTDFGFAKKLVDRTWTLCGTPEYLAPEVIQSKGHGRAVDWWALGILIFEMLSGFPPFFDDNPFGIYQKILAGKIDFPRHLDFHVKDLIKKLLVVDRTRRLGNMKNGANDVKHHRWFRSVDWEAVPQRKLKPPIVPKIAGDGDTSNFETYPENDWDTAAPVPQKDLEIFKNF
Protocol: as §1

EPHA4 = target: T9, EPHA4 (Homo sapiens, UniProt P54764)
T9 construct: purchased Eurofins Discovery (DiscoverX KINOMEscan scanMAX)
Protocol: as §1

KIT(D816V) = target: T10, KIT(D816V) (Homo sapiens, UniProt P10721, D816V)
T10 construct: purchased Eurofins Discovery (DiscoverX KINOMEscan scanMAX)
Protocol: as §1

RET(V804M) = target: T11, RET(V804M) (Homo sapiens, UniProt P07949, V804M)
T11 construct: purchased Eurofins Discovery (DiscoverX KINOMEscan scanMAX)
Protocol: as §1

MET(Y1235D) = target: T12, MET(Y1235D) (Homo sapiens, UniProt P08581, Y1235D)
T12 construct: purchased Eurofins Discovery (DiscoverX KINOMEscan scanMAX)
Protocol: as §1

MAP3K4 = target: T13, MAP3K4 (Homo sapiens, UniProt Q9Y6R4)
T13 construct: purchased Eurofins Discovery (DiscoverX KINOMEscan scanMAX)
Protocol: as §1

ERBB3 = target: T14, ERBB3 (Homo sapiens, UniProt P21860)
T14 construct: purchased Eurofins Discovery (DiscoverX KINOMEscan scanMAX)
Protocol: as §1

FES = target: T15, FES (Homo sapiens, UniProt P07332)
T15 construct: purchased Eurofins Discovery (DiscoverX KINOMEscan scanMAX)
Protocol: as §1

PIK3CA(Q546K) = target: T16, PIK3CA(Q546K) (Homo sapiens, UniProt P42336, Q546K)
T16 construct: purchased Eurofins Discovery (DiscoverX KINOMEscan scanMAX)
T16 sequence (P42336 whole entry Q546K): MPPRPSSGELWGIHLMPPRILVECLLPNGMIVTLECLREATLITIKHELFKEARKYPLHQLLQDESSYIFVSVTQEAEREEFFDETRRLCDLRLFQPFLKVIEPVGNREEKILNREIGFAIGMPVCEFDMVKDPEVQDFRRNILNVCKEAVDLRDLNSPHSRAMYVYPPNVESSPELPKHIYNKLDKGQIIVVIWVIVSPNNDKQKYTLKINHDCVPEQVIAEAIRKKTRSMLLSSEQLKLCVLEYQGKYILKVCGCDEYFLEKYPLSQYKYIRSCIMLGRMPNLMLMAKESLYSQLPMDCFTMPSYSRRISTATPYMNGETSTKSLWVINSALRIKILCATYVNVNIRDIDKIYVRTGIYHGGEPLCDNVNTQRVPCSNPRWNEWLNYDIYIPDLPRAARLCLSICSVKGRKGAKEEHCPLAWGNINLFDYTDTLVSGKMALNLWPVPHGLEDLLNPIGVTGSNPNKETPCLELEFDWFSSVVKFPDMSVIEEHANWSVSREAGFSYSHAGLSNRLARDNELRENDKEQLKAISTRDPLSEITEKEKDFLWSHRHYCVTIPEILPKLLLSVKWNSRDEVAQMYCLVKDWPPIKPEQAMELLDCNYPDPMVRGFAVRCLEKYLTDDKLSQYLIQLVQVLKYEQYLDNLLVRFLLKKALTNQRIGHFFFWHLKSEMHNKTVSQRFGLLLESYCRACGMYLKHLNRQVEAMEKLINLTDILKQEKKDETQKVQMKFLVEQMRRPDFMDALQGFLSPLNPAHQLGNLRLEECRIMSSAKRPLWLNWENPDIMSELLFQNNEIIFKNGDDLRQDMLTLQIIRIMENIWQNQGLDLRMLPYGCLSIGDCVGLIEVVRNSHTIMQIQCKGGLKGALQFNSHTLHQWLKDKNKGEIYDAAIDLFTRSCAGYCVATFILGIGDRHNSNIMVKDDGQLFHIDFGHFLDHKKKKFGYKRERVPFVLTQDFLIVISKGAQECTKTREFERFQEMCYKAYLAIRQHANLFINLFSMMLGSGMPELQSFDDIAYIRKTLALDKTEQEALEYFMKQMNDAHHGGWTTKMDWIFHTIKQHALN
Protocol: as §1

SYK = target: T17, SYK (Homo sapiens, UniProt P43405)
T17 construct: purchased Eurofins Discovery (DiscoverX KINOMEscan scanMAX)
Protocol: as §1

ABL2 = target: T18, ABL2 (Homo sapiens, UniProt P42684)
T18 construct: purchased Eurofins Discovery (DiscoverX KINOMEscan scanMAX)
T18 sequence (P42684 whole entry): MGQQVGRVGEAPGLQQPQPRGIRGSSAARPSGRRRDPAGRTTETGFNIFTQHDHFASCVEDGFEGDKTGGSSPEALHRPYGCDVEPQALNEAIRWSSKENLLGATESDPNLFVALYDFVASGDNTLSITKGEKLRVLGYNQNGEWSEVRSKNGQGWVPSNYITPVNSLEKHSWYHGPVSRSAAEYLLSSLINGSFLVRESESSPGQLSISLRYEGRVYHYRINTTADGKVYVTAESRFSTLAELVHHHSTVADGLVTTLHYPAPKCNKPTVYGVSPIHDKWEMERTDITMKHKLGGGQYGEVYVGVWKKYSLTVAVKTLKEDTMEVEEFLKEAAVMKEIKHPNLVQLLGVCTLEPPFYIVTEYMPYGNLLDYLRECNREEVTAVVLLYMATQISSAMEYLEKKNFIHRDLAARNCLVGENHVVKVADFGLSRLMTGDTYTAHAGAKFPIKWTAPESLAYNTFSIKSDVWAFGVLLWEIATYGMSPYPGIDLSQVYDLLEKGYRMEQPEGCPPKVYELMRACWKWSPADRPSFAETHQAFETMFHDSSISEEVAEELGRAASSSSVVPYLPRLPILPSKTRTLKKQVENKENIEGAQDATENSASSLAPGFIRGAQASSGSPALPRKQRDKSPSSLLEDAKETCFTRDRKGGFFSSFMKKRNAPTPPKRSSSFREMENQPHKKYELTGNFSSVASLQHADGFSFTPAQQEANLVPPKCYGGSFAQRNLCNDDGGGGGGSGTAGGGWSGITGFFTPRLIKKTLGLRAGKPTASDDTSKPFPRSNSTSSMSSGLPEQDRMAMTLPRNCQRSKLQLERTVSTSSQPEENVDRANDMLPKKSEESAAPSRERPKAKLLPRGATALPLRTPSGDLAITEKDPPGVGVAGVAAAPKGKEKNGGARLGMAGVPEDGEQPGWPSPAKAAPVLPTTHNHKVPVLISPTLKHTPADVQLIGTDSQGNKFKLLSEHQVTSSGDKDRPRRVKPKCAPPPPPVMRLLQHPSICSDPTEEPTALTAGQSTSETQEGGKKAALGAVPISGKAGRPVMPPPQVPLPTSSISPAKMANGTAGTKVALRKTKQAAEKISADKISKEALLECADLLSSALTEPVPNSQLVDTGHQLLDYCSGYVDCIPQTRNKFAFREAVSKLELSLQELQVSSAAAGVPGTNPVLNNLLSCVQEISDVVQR
Protocol: as §1

MRCKB = target: T19, MRCKB (Homo sapiens, UniProt Q9Y5S2)
T19 construct: purchased Eurofins Discovery (DiscoverX KINOMEscan scanMAX)
Protocol: as §1

BRK = target: T20, BRK (Homo sapiens, UniProt Q13882)
T20 construct: purchased Eurofins Discovery (DiscoverX KINOMEscan scanMAX)
T20 sequence (Q13882 whole entry): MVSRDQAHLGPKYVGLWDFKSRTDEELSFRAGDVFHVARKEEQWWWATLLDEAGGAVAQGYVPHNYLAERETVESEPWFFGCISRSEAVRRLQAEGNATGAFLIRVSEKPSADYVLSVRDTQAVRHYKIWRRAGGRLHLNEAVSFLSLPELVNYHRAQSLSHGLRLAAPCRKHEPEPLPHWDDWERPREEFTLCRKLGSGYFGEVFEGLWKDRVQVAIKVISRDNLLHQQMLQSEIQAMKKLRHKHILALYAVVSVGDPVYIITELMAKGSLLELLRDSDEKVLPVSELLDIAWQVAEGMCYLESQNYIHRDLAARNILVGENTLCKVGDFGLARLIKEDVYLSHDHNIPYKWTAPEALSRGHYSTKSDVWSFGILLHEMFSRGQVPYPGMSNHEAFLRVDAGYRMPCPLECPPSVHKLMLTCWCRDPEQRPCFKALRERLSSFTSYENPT
Protocol: as §1

ERK8 = target: T21, ERK8 (Homo sapiens, UniProt Q8TD08)
T21 construct: purchased Eurofins Discovery (DiscoverX KINOMEscan scanMAX)
Protocol: as §1

EGFR(G719C) = target: T22, EGFR(G719C) (Homo sapiens, UniProt P00533, G719C)
T22 construct: purchased Eurofins Discovery (DiscoverX KINOMEscan scanMAX)
Protocol: as §1

DDR2 = target: T23, DDR2 (Homo sapiens, UniProt Q16832)
T23 construct: purchased Eurofins Discovery (DiscoverX KINOMEscan scanMAX)
T23 sequence (Q16832 22-855): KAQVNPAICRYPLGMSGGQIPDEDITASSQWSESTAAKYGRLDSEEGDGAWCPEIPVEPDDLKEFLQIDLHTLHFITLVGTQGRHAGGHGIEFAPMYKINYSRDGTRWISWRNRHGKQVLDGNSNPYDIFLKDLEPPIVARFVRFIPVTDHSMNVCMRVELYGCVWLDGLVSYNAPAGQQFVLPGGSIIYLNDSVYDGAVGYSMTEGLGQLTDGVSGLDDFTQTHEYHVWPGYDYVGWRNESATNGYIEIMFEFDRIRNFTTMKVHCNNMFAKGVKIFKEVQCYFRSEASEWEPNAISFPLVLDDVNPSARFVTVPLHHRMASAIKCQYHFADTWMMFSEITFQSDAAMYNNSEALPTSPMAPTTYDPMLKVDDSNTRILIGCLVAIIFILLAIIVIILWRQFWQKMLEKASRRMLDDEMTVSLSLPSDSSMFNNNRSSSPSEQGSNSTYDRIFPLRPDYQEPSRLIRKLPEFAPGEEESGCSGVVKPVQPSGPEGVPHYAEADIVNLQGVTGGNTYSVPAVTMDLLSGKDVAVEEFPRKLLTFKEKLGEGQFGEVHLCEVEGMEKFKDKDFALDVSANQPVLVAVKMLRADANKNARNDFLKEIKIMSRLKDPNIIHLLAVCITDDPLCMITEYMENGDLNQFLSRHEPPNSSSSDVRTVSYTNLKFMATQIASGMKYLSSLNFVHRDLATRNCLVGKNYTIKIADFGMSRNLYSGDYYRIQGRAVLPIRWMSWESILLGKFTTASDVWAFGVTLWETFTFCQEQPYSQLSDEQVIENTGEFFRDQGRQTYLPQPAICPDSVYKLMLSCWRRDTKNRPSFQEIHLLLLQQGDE
Protocol: as §1

YANK2 = target: T24, YANK2 (Homo sapiens, UniProt Q9NY57)
T24 construct: purchased Eurofins Discovery (DiscoverX KINOMEscan scanMAX)
Protocol: as §1

PAK1 = target: T25, PAK1 (Homo sapiens, UniProt Q13153)
T25 construct: purchased Eurofins Discovery (DiscoverX KINOMEscan scanMAX)
Protocol: as §1

[2] = target: T26, ABL1(F317L)-phosphorylated (Homo sapiens, UniProt P00519, F317L)
T26 construct: purchased Eurofins Discovery (DiscoverX KINOMEscan scanMAX)
Protocol: as §1

WNK4 = target: T27, WNK4 (Homo sapiens, UniProt Q96J92)
T27 construct: purchased Eurofins Discovery (DiscoverX KINOMEscan scanMAX)
Protocol: as §1

FLT4 = target: T28, FLT4 (Homo sapiens, UniProt P35916)
T28 construct: purchased Eurofins Discovery (DiscoverX KINOMEscan scanMAX)
Protocol: as §1

NEK3 = target: T29, NEK3 (Homo sapiens, UniProt P51956)
T29 construct: purchased Eurofins Discovery (DiscoverX KINOMEscan scanMAX)
Protocol: as §1

TSSK1B = target: T30, TSSK1B (Homo sapiens, UniProt Q9BXA7)
T30 construct: purchased Eurofins Discovery (DiscoverX KINOMEscan scanMAX)
Protocol: as §1

MYLK2 = target: T31, MYLK2 (Homo sapiens, UniProt Q9H1R3)
T31 construct: purchased Eurofins Discovery (DiscoverX KINOMEscan scanMAX)
T31 sequence (Q9H1R3 whole entry): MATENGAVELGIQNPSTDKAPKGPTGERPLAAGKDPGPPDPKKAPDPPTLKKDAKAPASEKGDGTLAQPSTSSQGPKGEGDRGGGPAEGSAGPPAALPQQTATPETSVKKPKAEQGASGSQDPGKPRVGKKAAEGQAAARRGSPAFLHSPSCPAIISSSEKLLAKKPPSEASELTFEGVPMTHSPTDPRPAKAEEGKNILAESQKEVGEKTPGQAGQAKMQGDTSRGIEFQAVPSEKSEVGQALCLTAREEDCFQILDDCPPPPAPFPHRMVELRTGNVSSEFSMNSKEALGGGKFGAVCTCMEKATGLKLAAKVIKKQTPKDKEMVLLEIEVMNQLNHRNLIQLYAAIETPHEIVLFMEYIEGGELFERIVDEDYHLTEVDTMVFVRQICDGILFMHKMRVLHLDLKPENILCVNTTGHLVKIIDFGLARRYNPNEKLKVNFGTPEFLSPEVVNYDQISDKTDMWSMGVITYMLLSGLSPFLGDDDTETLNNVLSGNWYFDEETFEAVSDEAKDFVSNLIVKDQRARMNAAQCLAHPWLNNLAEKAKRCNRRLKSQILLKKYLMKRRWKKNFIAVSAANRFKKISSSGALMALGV
Protocol: as §1

PCTK2 = target: T32, PCTK2 (Homo sapiens, UniProt Q00537)
T32 construct: purchased Eurofins Discovery (DiscoverX KINOMEscan scanMAX)
T32 sequence (Q00537 whole entry): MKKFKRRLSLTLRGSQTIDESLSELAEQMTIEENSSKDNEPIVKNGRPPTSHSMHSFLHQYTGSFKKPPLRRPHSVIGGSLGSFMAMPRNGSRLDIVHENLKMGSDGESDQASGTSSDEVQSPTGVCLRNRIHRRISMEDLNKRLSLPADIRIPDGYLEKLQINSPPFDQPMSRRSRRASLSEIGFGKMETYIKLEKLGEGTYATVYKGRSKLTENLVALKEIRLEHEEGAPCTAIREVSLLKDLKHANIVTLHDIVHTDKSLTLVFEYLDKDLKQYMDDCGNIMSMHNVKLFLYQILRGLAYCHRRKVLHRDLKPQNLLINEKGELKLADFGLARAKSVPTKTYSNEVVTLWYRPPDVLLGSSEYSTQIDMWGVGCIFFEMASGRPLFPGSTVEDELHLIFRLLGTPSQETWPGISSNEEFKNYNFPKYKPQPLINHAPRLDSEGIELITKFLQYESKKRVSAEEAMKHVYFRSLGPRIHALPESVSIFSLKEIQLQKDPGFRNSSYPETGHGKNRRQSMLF
Protocol: as §1

MKNK1 = target: T33, MKNK1 (Homo sapiens, UniProt Q9BUB5)
T33 construct: purchased Eurofins Discovery (DiscoverX KINOMEscan scanMAX)
Protocol: as §1

`Cc1cc(Nc2ccc(F)c(CC3(C(=O)N4CCC(F)(CN5CCN(c6ccc(N7CCC(=O)NC7=O)cn6)CC5)CC4)CCN(Cc4cccc(Cl)c4F)CC3)n2)n[nH]1` [SK5527] showed a remaining binding at 0.1 µM (CDC2L1; 100 nM) of 98%, a remaining binding at 1 µM (CDC2L1; 1000 nM) of 95% and a remaining binding at 0.1 µM (BMX; 100 nM) of 100%. It also gave a remaining binding at 1 µM (BMX; 1000 nM) of 73%, a remaining binding at 0.1 µM (ERK3; 100 nM) of 100% and a remaining binding at 1 µM (ERK3; 1000 nM) of 94%. It also gave a remaining binding at 0.1 µM (DDR1; 100 nM) of 98%, a remaining binding at 1 µM (DDR1; 1000 nM) of 93% and a remaining binding at 0.1 µM ([1]; 100 nM) of 93%. For the same compound, the remaining binding at 1 µM ([1]; 1000 nM) was 79%, the remaining binding at 0.1 µM (GRK7; 100 nM) was 100% and the remaining binding at 1 µM (GRK7; 1000 nM) was 56%. The remaining binding at 0.1 µM (EPHA1; 100 nM) was 67%, the remaining binding at 1 µM (EPHA1; 1000 nM) was 23% and the remaining binding at 0.1 µM (PRKX; 100 nM) was 79%. It also gave a remaining binding at 1 µM (PRKX; 1000 nM) of 96%, a remaining binding at 0.1 µM (EPHA4; 100 nM) of 91% and a remaining binding at 1 µM (EPHA4; 1000 nM) of 100%. For the same compound, the remaining binding at 0.1 µM (KIT(D816V); 100 nM) was 93%, the remaining binding at 1 µM (KIT(D816V); 1000 nM) was 97% and the remaining binding at 0.1 µM (RET(V804M); 100 nM) was 85%. The remaining binding at 1 µM (RET(V804M); 1000 nM) was 65%, the remaining binding at 0.1 µM (MET(Y1235D); 100 nM) was 86% and the remaining binding at 1 µM (MET(Y1235D); 1000 nM) was 100%. The remaining binding at 0.1 µM (MAP3K4; 100 nM) was 72%, the remaining binding at 1 µM (MAP3K4; 1000 nM) was 87% and the remaining binding at 0.1 µM (ERBB3; 100 nM) was 100%. It also gave a remaining binding at 1 µM (ERBB3; 1000 nM) of 100%, a remaining binding at 0.1 µM (FES; 100 nM) of 100% and a remaining binding at 1 µM (FES; 1000 nM) of 100%. The remaining binding at 0.1 µM (PIK3CA(Q546K); 100 nM) was 81%, the remaining binding at 1 µM (PIK3CA(Q546K); 1000 nM) was 78% and the remaining binding at 0.1 µM (SYK; 100 nM) was 83%. For the same compound, the remaining binding at 1 µM (SYK; 1000 nM) was 100%, the remaining binding at 0.1 µM (ABL2; 100 nM) was 100% and the remaining binding at 1 µM (ABL2; 1000 nM) was 66%. For the same compound, the remaining binding at 0.1 µM (MRCKB; 100 nM) was 98%, the remaining binding at 1 µM (MRCKB; 1000 nM) was 93% and the remaining binding at 0.1 µM (BRK; 100 nM) was 92%. The remaining binding at 1 µM (BRK; 1000 nM) was 88%, the remaining binding at 0.1 µM (ERK8; 100 nM) was 89% and the remaining binding at 1 µM (ERK8; 1000 nM) was 92%. It also gave a remaining binding at 0.1 µM (EGFR(G719C); 100 nM) of 87%, a remaining binding at 1 µM (EGFR(G719C); 1000 nM) of 94% and a remaining binding at 0.1 µM (DDR2; 100 nM) of 98%. For the same compound, the remaining binding at 1 µM (DDR2; 1000 nM) was 100%, the remaining binding at 0.1 µM (YANK2; 100 nM) was 100% and the remaining binding at 1 µM (YANK2; 1000 nM) was 100%. The remaining binding at 0.1 µM (PAK1; 100 nM) was 100%, the remaining binding at 1 µM (PAK1; 1000 nM) was 88% and the remaining binding at 0.1 µM ([2]; 100 nM) was 92%. For the same compound, the remaining binding at 1 µM ([2]; 1000 nM) was 68%, the remaining binding at 0.1 µM (WNK4; 100 nM) was 80% and the remaining binding at 1 µM (WNK4; 1000 nM) was 95%. For the same compound, the remaining binding at 0.1 µM (FLT4; 100 nM) was 76%, the remaining binding at 1 µM (FLT4; 1000 nM) was 40% and the remaining binding at 0.1 µM (NEK3; 100 nM) was 88%. It also gave a remaining binding at 1 µM (NEK3; 1000 nM) of 61%, a remaining binding at 0.1 µM (TSSK1B; 100 nM) of 100% and a remaining binding at 1 µM (TSSK1B; 1000 nM) of 100%. The remaining binding at 0.1 µM (MYLK2; 100 nM) was 100%, the remaining binding at 1 µM (MYLK2; 1000 nM) was 100% and the remaining binding at 0.1 µM (PCTK2; 100 nM) was 100%. The remaining binding at 1 µM (PCTK2; 1000 nM) was 100%, the remaining binding at 0.1 µM (MKNK1; 100 nM) was 84% and the remaining binding at 1 µM (MKNK1; 1000 nM) was 92%.
